System: HCT116
Test: In vitro cytotoxicity measured by the cell colony formation assay
Assay type: cell-based
Details: HCT116 cells, 72 h drug incubation, colonies counted after 7 days; ID50 = drug concentration producing 50% inhibition of colony formation; read-out: IN VITRO ID 50 (nm) HCT116
Experimental: In Vitro Cytotoxicity Measured by the Cell Colony Formation Assay
Four hundred cells (HCT116) were plated in 60 mm Petri dishes containing 2.7 mL of medium (modified McCoy's 5a medium containing 10% fetal bovine serum and 100 units/mL penicillin and 100 µg/mL streptomycin). The cells were incubated in a CO2 incubator at 37° C. for 5 h for attachment to the bottom of Petri dishes. The compounds identified in Example 2 were made up fresh in medium at ten times the final concentration, and then 0.3 mL of this stock solution was added to the 2.7 mL of medium in the dish. The cells were then incubated with drugs for 72 h at 37° C. At the end of incubation the drug-containing media were decanted, the dishes were rinsed with 4 mL of Hank's Balance Salt Solution (HBSS), 5 mL of fresh medium was added, and the dishes were returned to the incubator for colony formation. The cell colonies were counted using a colony counter after incubation for 7 days.

Row | Structure (SMILES) | IC50 [nM]
1 | CC(=O)O[C@@]12CO[C@@H]1C[C@H](O)[C@@]1(C)C(=O)[C@H](OC(=O)C3CC3)C3=C(C)[C@@H](OC(=O)[C@H](O)[C@@H](NC(=O)OC(C)(C)C)c4ccco4)C[C@@](O)([C@@H](OC(=O)c4ccccc4)C12)C3(C)C (stereo partly drawn) [Compound 0843] | < 1
2 | CC(=O)O[C@@]12CO[C@@H]1C[C@H](O)[C@@]1(C)C(=O)[C@H](OC(=O)C3CC3)C3=C(C)[C@@H](OC(=O)[C@H](O)[C@@H](NC(=O)OC(C)(C)C)c4cccs4)C[C@@](O)([C@@H](OC(=O)c4ccccc4)C12)C3(C)C (stereo partly drawn) [Compound 0854] | < 1
3 | CC(=O)O[C@@]12CO[C@@H]1C[C@H](O)[C@@]1(C)C(=O)[C@H](OC(=O)C3CC3)C3=C(C)[C@@H](OC(=O)[C@H](O)[C@@H](NC(=O)OC(C)(C)C)C4CC4)C[C@@](O)([C@@H](OC(=O)c4ccccc4)C12)C3(C)C (stereo partly drawn) [Compound 0860] | < 1
4 | CC(=O)O[C@@]12CO[C@@H]1C[C@H](O)[C@@]1(C)C(=O)[C@H](OC(=O)C3CC3)C3=C(C)[C@@H](OC(=O)[C@H](O)[C@@H](NC(=O)OC(C)(C)C)c4ccc([N+](=O)[O-])cc4)C[C@@](O)([C@@H](OC(=O)c4ccccc4)C12)C3(C)C (stereo partly drawn) [Compound 0879] | < 1
5 | CC(=O)O[C@@]12CO[C@@H]1C[C@H](O)[C@@]1(C)C(=O)[C@H](OC(=O)C3CC3)C3=C(C)[C@@H](OC(=O)[C@H](O)[C@@H](NC(=O)OC(C)(C)C)c4ccccc4)C[C@@](O)([C@@H](OC(=O)c4ccccc4)C12)C3(C)C (stereo partly drawn) [Compound 0882] | < 1
6 | CC(=O)O[C@@]12CO[C@@H]1C[C@H](O)[C@@]1(C)C(=O)[C@H](OC(=O)C3CC3)C3=C(C)[C@@H](OC(=O)[C@H](O)[C@H](C=C(C)C)NC(=O)c4ccccc4)C[C@@](O)([C@@H](OC(=O)c4ccccc4)C12)C3(C)C (stereo partly drawn) [Compound 0890] | < 1
7 | CC(=O)O[C@@]12CO[C@@H]1C[C@H](O)[C@@]1(C)C(=O)[C@H](OC(=O)C3CC3)C3=C(C)[C@@H](OC(=O)[C@H](O)[C@@H](NC(=O)c4ccccc4)c4ccco4)C[C@@](O)([C@@H](OC(=O)c4ccccc4)C12)C3(C)C (stereo partly drawn) [Compound 0908] | < 1
8 | CC(=O)O[C@@]12CO[C@@H]1C[C@H](O)[C@@]1(C)C(=O)[C@H](OC(=O)C3CC3)C3=C(C)[C@@H](OC(=O)[C@H](O)[C@@H](NC(=O)c4ccccc4)c4cccs4)C[C@@](O)([C@@H](OC(=O)c4ccccc4)C12)C3(C)C (stereo partly drawn) [Compound 0919] | < 1
9 | CC(=O)O[C@@]12CO[C@@H]1C[C@H](O)[C@@]1(C)C(=O)[C@H](OC(=O)C3CC3)C3=C(C)[C@@H](OC(=O)[C@H](O)[C@@H](NC(=O)c4ccccc4)C4CC4)C[C@@](O)([C@@H](OC(=O)c4ccccc4)C12)C3(C)C (stereo partly drawn) [Compound 0923] | < 1
10 | CC(=O)O[C@@]12CO[C@@H]1C[C@H](O)[C@@]1(C)C(=O)[C@H](OC(=O)C3CC3)C3=C(C)[C@@H](OC(=O)[C@H](O)[C@@H](NC(=O)c4ccccc4)c4ccccc4)C[C@@](O)([C@@H](OC(=O)c4ccccc4)C12)C3(C)C (stereo partly drawn) [Compound 0937] | < 10
11 | CCCC(=O)O[C@H]1C(=O)[C@@]2(C)C([C@H](OC(=O)c3ccccc3)[C@]3(O)C[C@H](OC(=O)[C@H](O)[C@H](C=C(C)C)NC(=O)OC(C)(C)C)C(C)=C1C3(C)C)[C@]1(OC(C)=O)CO[C@@H]1C[C@@H]2O (stereo partly drawn) [Compound 0947] | < 1
12 | CCCC(=O)O[C@H]1C(=O)[C@@]2(C)C([C@H](OC(=O)c3ccccc3)[C@]3(O)C[C@H](OC(=O)[C@H](O)[C@@H](NC(=O)OC(C)(C)C)c4ccccn4)C(C)=C1C3(C)C)[C@]1(OC(C)=O)CO[C@@H]1C[C@@H]2O (stereo partly drawn) [Compound 0951] | < 1
13 | CCCC(=O)O[C@H]1C(=O)[C@@]2(C)C([C@H](OC(=O)c3ccccc3)[C@]3(O)C[C@H](OC(=O)[C@H](O)[C@@H](NC(=O)OC(C)(C)C)c4cccnc4)C(C)=C1C3(C)C)[C@]1(OC(C)=O)CO[C@@H]1C[C@@H]2O (stereo partly drawn) [Compound 0966] | < 10
14 | CCCC(=O)O[C@H]1C(=O)[C@@]2(C)C([C@H](OC(=O)c3ccccc3)[C@]3(O)C[C@H](OC(=O)[C@H](O)[C@@H](NC(=O)OC(C)(C)C)c4ccncc4)C(C)=C1C3(C)C)[C@]1(OC(C)=O)CO[C@@H]1C[C@@H]2O (stereo partly drawn) [Compound 0978] | < 1
15 | CCCC(=O)O[C@H]1C(=O)[C@@]2(C)C([C@H](OC(=O)c3ccccc3)[C@]3(O)C[C@H](OC(=O)[C@H](O)[C@@H](NC(=O)OC(C)(C)C)c4ccco4)C(C)=C1C3(C)C)[C@]1(OC(C)=O)CO[C@@H]1C[C@@H]2O (stereo partly drawn) [Compound 0983] | < 1
16 | CCCC(=O)O[C@H]1C(=O)[C@@]2(C)C([C@H](OC(=O)c3ccccc3)[C@]3(O)C[C@H](OC(=O)[C@H](O)[C@@H](NC(=O)OC(C)(C)C)c4ccoc4)C(C)=C1C3(C)C)[C@]1(OC(C)=O)CO[C@@H]1C[C@@H]2O (stereo partly drawn) [Compound 0999] | < 1
17 | CCCC(=O)O[C@H]1C(=O)[C@@]2(C)C([C@H](OC(=O)c3ccccc3)[C@]3(O)C[C@H](OC(=O)[C@H](O)[C@@H](NC(=O)OC(C)(C)C)c4cccs4)C(C)=C1C3(C)C)[C@]1(OC(C)=O)CO[C@@H]1C[C@@H]2O (stereo partly drawn) [Compound 1003] | < 1
18 | CCCC(=O)O[C@H]1C(=O)[C@@]2(C)C([C@H](OC(=O)c3ccccc3)[C@]3(O)C[C@H](OC(=O)[C@H](O)[C@@H](NC(=O)OC(C)(C)C)c4ccsc4)C(C)=C1C3(C)C)[C@]1(OC(C)=O)CO[C@@H]1C[C@@H]2O (stereo partly drawn) [Compound 1011] | < 1

Row | Structure (SMILES) | IC50 [nM]
19 | CCCC(=O)OC1C(=O)C2(C)C(O)CC3OCC3(OC(C)=O)C2C(OC(=O)c2ccccc2)C2(O)CC(OC(=O)C(O)C(NC(=O)OC(C)(C)C)C3CC3)C(C)=C1C2(C)C (stereo not drawn) [Compound 1020] | < 1
20 | CCCC(=O)OC1C(=O)C2(C)C(O)CC3OCC3(OC(C)=O)C2C(OC(=O)c2ccccc2)C2(O)CC(OC(=O)C(O)C(NC(=O)OC(C)(C)C)C(C)C)C(C)=C1C2(C)C (stereo not drawn) [Compound 1031] | < 10
21 | CCCC(=O)OC1C(=O)C2(C)C(O)CC3OCC3(OC(C)=O)C2C(OC(=O)c2ccccc2)C2(O)CC(OC(=O)C(O)C(NC(=O)OC(C)(C)C)C3CCC3)C(C)=C1C2(C)C (stereo not drawn) [Compound 1044] | < 1
22 | CCCC(=O)OC1C(=O)C2(C)C(O)CC3OCC3(OC(C)=O)C2C(OC(=O)c2ccccc2)C2(O)CC(OC(=O)C(O)C(NC(=O)OC(C)(C)C)c3ccccc3)C(C)=C1C2(C)C (stereo not drawn) [Compound 1060] | < 1
23 | CC(=O)OC12COC1CC(O)C1(C)C(=O)C(OC(=O)c3cccs3)C3=C(C)C(OC(=O)C(O)C(C=C(C)C)NC(=O)OC(C)(C)C)CC(O)(C(OC(=O)c4ccccc4)C21)C3(C)C (stereo not drawn) [Compound 1879] | < 10
24 | CC(=O)OC12COC1CC(O)C1(C)C(=O)C(OC(=O)c3cccs3)C3=C(C)C(OC(=O)C(O)C(NC(=O)OC(C)(C)C)c4ccccn4)CC(O)(C(OC(=O)c4ccccc4)C21)C3(C)C (stereo not drawn) [Compound 1883] | < 10
25 | CC(=O)OC12COC1CC(O)C1(C)C(=O)C(OC(=O)c3cccs3)C3=C(C)C(OC(=O)C(O)C(NC(=O)OC(C)(C)C)c4ccco4)CC(O)(C(OC(=O)c4ccccc4)C21)C3(C)C (stereo not drawn) [Compound 1892] | < 1
26 | CC(=O)OC12COC1CC(O)C1(C)C(=O)C(OC(=O)c3cccs3)C3=C(C)C(OC(=O)C(O)C(NC(=O)OC(C)(C)C)c4cccs4)CC(O)(C(OC(=O)c4ccccc4)C21)C3(C)C (stereo not drawn) [Compound 1900] | < 1
27 | CC(=O)OC12COC1CC(O)C1(C)C(=O)C(OC(=O)c3cccs3)C3=C(C)C(OC(=O)C(O)C(NC(=O)OC(C)(C)C)c4ccc([N+](=O)[O-])cc4)CC(O)(C(OC(=O)c4ccccc4)C21)C3(C)C (stereo not drawn) [Compound 1911] | < 10
28 | CC(=O)OC12COC1CC(O)C1(C)C(=O)C(OC(=O)c3cccs3)C3=C(C)C(OC(=O)C(O)C(NC(=O)OC(C)(C)C)c4ccoc4)CC(O)(C(OC(=O)c4ccccc4)C21)C3(C)C (stereo not drawn) [Compound 1923] | < 1
29 | CC(=O)OC12COC1CC(O)C1(C)C(=O)C(OC(=O)c3cccs3)C3=C(C)C(OC(=O)C(O)C(NC(=O)OC(C)(C)C)c4ccsc4)CC(O)(C(OC(=O)c4ccccc4)C21)C3(C)C (stereo not drawn) [Compound 1939] | < 1
30 | CC(=O)OC12COC1CC(O)C1(C)C(=O)C(OC(=O)c3cccs3)C3=C(C)C(OC(=O)C(O)C(NC(=O)OC(C)(C)C)c4cccnc4)CC(O)(C(OC(=O)c4ccccc4)C21)C3(C)C (stereo not drawn) [Compound 1948] | < 10
31 | CC(=O)OC12COC1CC(O)C1(C)C(=O)C(OC(=O)c3cccs3)C3=C(C)C(OC(=O)C(O)C(NC(=O)OC(C)(C)C)c4ccncc4)CC(O)(C(OC(=O)c4ccccc4)C21)C3(C)C (stereo not drawn) [Compound 1954] | < 1
32 | CC(=O)OC12COC1CC(O)C1(C)C(=O)C(OC(=O)c3cccs3)C3=C(C)C(OC(=O)C(O)C(NC(=O)OC(C)(C)C)C(C)C)CC(O)(C(OC(=O)c4ccccc4)C21)C3(C)C (stereo not drawn) [Compound 1964] | < 10
33 | CC(=O)OC12COC1CC(O)C1(C)C(=O)C(OC(=O)c3cccs3)C3=C(C)C(OC(=O)C(O)C(NC(=O)OC(C)(C)C)C4CCC4)CC(O)(C(OC(=O)c4ccccc4)C21)C3(C)C (stereo not drawn) [Compound 1970] | < 10
34 | CC(=O)OC12COC1CC(O)C1(C)C(=O)C(OC(=O)c3cccs3)C3=C(C)C(OC(=O)C(O)C(NC(=O)OC(C)(C)C)c4ccccc4)CC(O)(C(OC(=O)c4ccccc4)C21)C3(C)C (stereo not drawn) [Compound 1988] | < 10
35 | CC(=O)OC12COC1CC(O)C1(C)C(=O)C(OC(=O)c3ccco3)C3=C(C)C(OC(=O)C(O)C(C=C(C)C)NC(=O)OC(C)(C)C)CC(O)(C(OC(=O)c4ccccc4)C21)C3(C)C (stereo not drawn) [Compound 2101] | < 1
36 | CC(=O)OC12COC1CC(O)C1(C)C(=O)C(OC(=O)c3ccco3)C3=C(C)C(OC(=O)C(O)C(NC(=O)OC(C)(C)C)c4ccccn4)CC(O)(C(OC(=O)c4ccccc4)C21)C3(C)C (stereo not drawn) [Compound 2111] | < 1

Source: patent US7524869B2, “Taxanes having a C10 ester substituent” (Florida State University Research Foundation, Inc., priority 2000, dated 2009)
